Source: publication PMC7692329, “Inhibitory Effect of AB-PINACA, Indazole Carboxamide Synthetic Cannabinoid, on Human Major Drug-Metabolizing Enzymes and Transporters” (Pharmaceutics, 2020)
Where two headings read alike, the source gives them in different places.

Experiments:
[1] = tested on: human cannabinoid receptor type 1 (hCB1); settings: cited from earlier work
[2] = tested on: human cannabinoid receptor type 2 (hCB2); settings: cited from earlier work
[3] = design: method as in PMID 26105953; settings: cited from earlier work
[4] = molecular target: CYP2B6 (Homo sapiens, UniProt P20813); assay: CYP2B6 bupropion hydroxylase inhibition in ultrapooled human liver microsomes
Chain of CYP2B6 (P20813 whole entry): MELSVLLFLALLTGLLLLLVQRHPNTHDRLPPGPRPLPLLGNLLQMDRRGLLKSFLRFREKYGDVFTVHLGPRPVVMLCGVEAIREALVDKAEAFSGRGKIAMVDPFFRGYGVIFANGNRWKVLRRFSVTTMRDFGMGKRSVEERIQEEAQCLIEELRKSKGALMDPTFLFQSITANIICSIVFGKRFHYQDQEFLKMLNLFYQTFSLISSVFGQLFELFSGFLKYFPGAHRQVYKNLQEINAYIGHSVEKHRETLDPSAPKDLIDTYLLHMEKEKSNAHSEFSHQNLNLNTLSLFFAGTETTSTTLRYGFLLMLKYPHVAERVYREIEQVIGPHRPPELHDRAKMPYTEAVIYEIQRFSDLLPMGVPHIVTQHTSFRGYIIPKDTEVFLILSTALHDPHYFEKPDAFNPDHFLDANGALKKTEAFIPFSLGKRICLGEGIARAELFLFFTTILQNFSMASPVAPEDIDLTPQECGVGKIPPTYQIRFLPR

[5] = molecular target: CYP2A6 (Homo sapiens, UniProt P11509); assay: CYP2A6 coumarin 7-hydroxylase inhibition in ultrapooled human liver microsomes
Chain of CYP2A6 (P11509 whole entry): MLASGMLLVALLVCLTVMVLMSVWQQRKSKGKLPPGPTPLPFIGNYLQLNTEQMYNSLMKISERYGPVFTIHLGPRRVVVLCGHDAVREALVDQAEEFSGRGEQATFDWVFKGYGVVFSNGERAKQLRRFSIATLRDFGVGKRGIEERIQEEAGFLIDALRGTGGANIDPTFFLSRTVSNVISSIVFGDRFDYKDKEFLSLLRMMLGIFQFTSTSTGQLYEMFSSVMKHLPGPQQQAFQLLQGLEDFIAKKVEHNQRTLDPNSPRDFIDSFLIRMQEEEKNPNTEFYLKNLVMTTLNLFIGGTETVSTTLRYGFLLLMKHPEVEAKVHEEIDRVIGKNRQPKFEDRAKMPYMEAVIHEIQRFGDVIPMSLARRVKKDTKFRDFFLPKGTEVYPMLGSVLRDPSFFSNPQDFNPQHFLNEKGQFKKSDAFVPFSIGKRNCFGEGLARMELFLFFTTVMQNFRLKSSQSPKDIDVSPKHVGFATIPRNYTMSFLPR

[6] = molecular target: T1, CYP2C8 (Homo sapiens, UniProt P10632); assay: CYP2C8 amodiaquine N-deethylase inhibition in ultrapooled human liver microsomes; settings: for IC50: CYP2C8 amodiaquine N-deethylase, ultrapooled human liver microsomes
T1 sequence (P10632 1-490): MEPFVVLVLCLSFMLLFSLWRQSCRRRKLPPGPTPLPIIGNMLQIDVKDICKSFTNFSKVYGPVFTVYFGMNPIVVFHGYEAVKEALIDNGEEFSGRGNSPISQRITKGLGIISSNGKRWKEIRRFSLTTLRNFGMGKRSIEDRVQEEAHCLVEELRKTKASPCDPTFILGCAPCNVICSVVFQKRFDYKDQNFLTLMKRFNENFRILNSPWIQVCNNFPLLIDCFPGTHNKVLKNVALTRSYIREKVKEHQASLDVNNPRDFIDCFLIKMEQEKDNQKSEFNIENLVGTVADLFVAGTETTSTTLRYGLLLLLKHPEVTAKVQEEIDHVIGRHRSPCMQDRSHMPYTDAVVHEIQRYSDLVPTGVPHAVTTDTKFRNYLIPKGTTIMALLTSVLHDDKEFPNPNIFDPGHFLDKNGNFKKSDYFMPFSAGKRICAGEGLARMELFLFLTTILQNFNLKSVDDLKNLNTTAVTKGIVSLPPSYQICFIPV

[7] = molecular target: CYP3A4 (Homo sapiens, UniProt P08684); assay: CYP3A4 midazolam 1'-hydroxylase inhibition and inactivation kinetics in ultrapooled human liver microsomes; settings: for IC50: CYP3A4 midazolam 1'-hydroxylase, ultrapooled human liver microsomes
Chain of CYP3A4 (P08684 whole entry): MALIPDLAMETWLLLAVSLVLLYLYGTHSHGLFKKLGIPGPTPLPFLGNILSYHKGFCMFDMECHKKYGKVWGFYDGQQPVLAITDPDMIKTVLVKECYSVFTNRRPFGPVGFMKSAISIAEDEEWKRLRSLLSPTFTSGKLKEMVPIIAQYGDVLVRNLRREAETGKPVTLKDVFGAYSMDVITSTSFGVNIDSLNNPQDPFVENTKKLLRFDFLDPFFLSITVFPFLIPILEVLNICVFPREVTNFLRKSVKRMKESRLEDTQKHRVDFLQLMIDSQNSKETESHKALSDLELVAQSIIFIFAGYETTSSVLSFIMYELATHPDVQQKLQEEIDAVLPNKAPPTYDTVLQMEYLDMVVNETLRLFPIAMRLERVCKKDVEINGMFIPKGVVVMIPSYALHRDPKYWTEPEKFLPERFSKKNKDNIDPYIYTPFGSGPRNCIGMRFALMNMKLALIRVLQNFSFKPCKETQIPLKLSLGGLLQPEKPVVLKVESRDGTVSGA

[8] = IC50 With NADPH Preincubation, 30-min preincubation with NADPH
[9] = IC50 Without NADPH Preincubation, without NADPH preincubation
[10] = human, liver microsomes, pH 7.4, probe midazolam

CCCCCn1nc(C(=O)N[C@H](C(N)=O)C(C)C)c2ccccc21 [AB-PINACA, N-[(2S)-1-amino-3-methyl-1-oxobutan-2-yl]-1-pentyl-1H-indazole-3-carboxamide]
fold higher in vitro binding affinity to hCB1 compared with Δ9-THC [1]: 23.3 fold | Ki ([1]; read-out: receptor binding affinity to hCB1 (Ki)): 0.00287 µM | fold higher in vitro binding affinity to hCB2 compared with Δ9-THC [2]: 40.9 fold | Ki ([2]; read-out: receptor binding affinity to hCB2 (Ki)): 0.00088 µM | substitution for Δ9-THC [3]: substituted fully and dose dependently | IC50 [4]: > 100 µM | IC50 ([4]; read-out: IC50 With NADPH Preincubation, CYP2B6 bupropion hydroxylase, ultrapooled human liver microsomes, 30-min preincubation with NADPH): > 100 µM | IC50 [5]: > 100 µM | IC50 ([5]; read-out: IC50 Without NADPH Preincubation, CYP2A6 coumarin 7-hydroxylase, ultrapooled human liver microsomes, without NADPH preincubation): > 100 µM | Ki [6]: 16.9 µM | IC50 [6, 8]: 30.1 µM | IC50 [6, 9]: 32.5 µM | Mode of Inhibition, CYP2C8 ([6]; amodiaquine N-deethylation, human liver microsomes): mixed mode of inhibition | IC50 shift at 15 min ([6]; human, liver microsomes, pH 7.4, probe amodiaquine): 1.1 | Ki [7]: 17.6 µM | IC50 [7, 8]: 24.4 µM | IC50 [7, 9]: 66.4 µM | IC50 shift at 15 min [7, 10]: 2.7 | kinact [7, 10]: 0.000674 s⁻¹ | Mode of Inhibition, CYP3A4 ([7]; midazolam 1'-hydroxylation, human liver microsomes): time-dependent inhibition
